According to US5942521A, “Quinolinone derivative and anti-allergic agent with said quinolinone derivative as the active ingredient” (Dainippon Ink and Chemicals, Inc., priority 1996, dated 1999):

Key:
Assay type in all cases: in vivo
[1] = test system: immediate type asthmatic response; experiment: Effect on experimental immediate type asthma model in guinea pigs; details: airway resistance 1 minute after challenge
Description: (§1) Effect on experimental immediate and delayed type asthma model in guinea pigs
(§2) The asthma is typical allergic disease and we carried out this pharmacological test by experimental asthmatic model in guinea pigs in order to confirm that the compounds of the present invention, compound 21, 41 and 46, suppress immediate and delayed type asthmatic response. In the following, the method of the pharmacological test will be explained.
(§3) Method: Male hartley guinea pigs were sensitized by exposured aerosolized ovalbumine (OVA) (1% in saline) for 10 minutes per a day at eight times. The aerosol was generated by an ultrasonic nebulizer (NE-U12, Omuron inc.). One week after final sensitization, the animals were challenged with inhalation of OVA (2% in saline) for 5 minutes. The animals were pretreated with metyrapone (10 mg/kg, i.v.) at 1 and 4 hours before the challenge, and pyrilamine (10 mg/kg, i.p.) at 30 minutes before the challenge. airway resistance in the conscious animals were measured for 1 minute with PULMOS-1(made in Medical Interface Project Station Inc.) at 1 minute, 2, 4, 5, 6, 7, 8 and 23 to 24 hours after the challenge. Compound 21, 41 and 46 (test compound) suspended in 0.5% methylcellulose (MC) solution were given orally at doses of 5, 10 and 20 mg/kg 1 hour before and 3 hours after the challenge. As a positive control group, Prednisolone was given orally at a dose of 10 mg/kg 2 hours and 16 hours before the challenge. As vehicle control group, only 0.5% MC solution was given orally.
(§4) The evaluation of the effect of the compounds on immediate and delayed type asthmatic response was undertaken with percentage of change in airway resistance 1 minute after the challenge and the area under the response curve for percentage of change in airway resistance between 4 and 8 hours after the challenge, respectively. The inhibition (%) of the compounds for immediate and delayed type asthmatic response was calculated according to equation 4 and the result was shown in table 3. Each experimental group consisted of 8 guinea pigs.
(§5) Inhibition (%)=(A-B)/A×100 (equation 4)
(§6) A: percentage of change in airway resistance in vehicle control group
(§7) B: percentage of change in airway resistance in test compound group or positive control group

[2] = test system: passive cutaneous anaphylaxis (PCA) reaction; experiment: Effect on homologous passive cutaneous anaphylaxis (PCA) reaction in rats; details: Rattus norvegicus, po, 0.5 h; test compounds, 100 mg/kg p.o., 1 hour before induction of anaphylaxis, male wistar rats
Protocol: Effect on homologous passive cutaneous anaphylaxis (PCA) reaction in rats
This experimental animal model is caused by immediate type allergic reaction, namely, antigen-antibody reaction. In the following, the method of this pharmacological test will be explained.
Method: Male wistar rats (9 weeks old) were intradermally administered 0.05 ml of anti-serum against dinitrophenylated ascaris (DNP-As) into two sites on the shaved dorsal skin. 48 hours later, aminoquinolinone derivatives (test compounds) suspended in 0.5% methylcellulose (MC) were given orally at a dose of 100 mg/kg to the animals. 1 hour after administration of Test compounds, the animals were induced anaphylaxis by injection of saline (1 ml) dissolving 1 mg of trinitrophenylated ascaris (TNP-As) and 5 mg of Evans Blue into the tail vein of the animals. 30 minutes after induction of anaphylaxis, animals were anesthetized by ether and killed by bleeding, and were flayed dorsal skin. The leakage of dye was assessed by measuring the diameter (mean of shortest and longest diameter) of the blue spot on the inside surface of dorsal skin. As vehicle control group, only 0.5% MC solution was administered orally, and as positive control group, Tranilast suspended in 0.5% MC were administered orally at a dose of 200 mg/kg to the animals with the same method as the test compounds groups, The inhibition (%) of PCA reaction was calculated according to equation 1 and the result was shown in Table 1. Each experimental group consisted of 5 rats.
In the conditions of this experiment, it was considered that the compound, which inhibited PCA reaction by over forty (40) percent against that in vehicle control group, was evidently effective for immediate type allergy.
Inhibition (%)=(A-B)/A×100 (Equation 1)
A: leakage of dye in vehicle control group
B: leakage of dye in test compound group or positive control group

[3] = test system: delayed type asthmatic response; experiment: Effect on experimental delayed type asthma model in guinea pigs; details: AUC of airway resistance 4-8 hours after challenge
Description: as §1, §2, §3, §4, §5, §6, §7

[4] = test system: contact dermatitis induced by picryl chloride; experiment: Effect on contact dermatitis induced by picryl chloride in mice; details: Mus musculus, po, read-out: Inhibition (%) of increase of ear thickness; for inhibition in vivo at 20 mg/kg: test compounds, 20 mg/kg p.o. 12 hours after challenge, ear thickness at 24 hours
Protocol: Effect on contact dermatitis induced by picryl chloride in mice
The delayed type hypersensitization is inhibited by steroid, but can not be effected by known anti-allergic agents. In the following, the method of the pharmacological test will be explained.
Method: Mice, shaved their abdominal skin on previous day, were immunized by applying 0.1 ml of acetone containing 7 mg of picryl chloride to the skin of the abdomen. 7 days after immunization, the thickness of the ear was measured with a dial thickness gauge, then mice were challenged by painting […] of 1% picryl chloride olive oil solution to each side skin of left ear. 24 hours after challenge, the thickness of the left ear was measured again. The compounds of the present invention (test compounds) suspended in 0.5% MC were forcibly administered orally at a dose of 20 mg/kg 12 hours after challenge. As vehicle control group, only 0.5% MC solution was administered orally, and as positive control group, Prednisolone, steroid hormone, was administered orally at a dose of 10 mg/kg and as negative control group, Tranilast was administered orally at a dose of 200 mg/kg.
Increase (%)=(A-B)/B×100 (Equation 2)
A: thickness of the ear at 24 hours after challenge
B: thickness of the ear before challenge
Inhibition (%)=(C-D)/C×100 (Equation 3)
C: The increase (%) in vehicle control group
D: The increase (%) in test compounds group, positive control group

[5] = 5 mg/kg p.o. 1 hour before and 3 hours after challenge
[6] = 10 mg/kg p.o. 1 hour before and 3 hours after challenge
[7] = 20 mg/kg p.o. 1 hour before and 3 hours after challenge
[8] = Prednisolone 10 mg/kg p.o. 2 hours and 16 hours before challenge

Compound | inhibition (%), immediate type asthma [1, 5] [%] | inhibition (%), immediate type asthma [1, 6] [%] | inhibition (%), immediate type asthma [1, 7] [%] | inhibition in vivo at 100 mg/kg [2] [%] | inhibition (%), delayed type asthma [3, 5] [%] | inhibition (%), delayed type asthma [3, 6] [%] | inhibition (%), delayed type asthma [3, 7] [%] | inhibition in vivo at 20 mg/kg [4] [%] | inhibition (%), immediate type asthma [1, 8] [%] | inhibition (%), delayed type asthma [3, 8] [%] | inhibition in vivo at 10 mg/kg ([4]; 24 h) [%]
CCCCCCOc1c(O)c2ccc(N)cc2n(C)c1=O [compound 21, 7-amino-3-hexyloxy-4-hydroxy-1-methyl-2(1H)-quinolinone] | 20 | 30 | 31 | 60 | 23 | 39 | 48 | 51 |  |  | 
C[C@]12C=CC(=O)C=C1CC[C@@H]1[C@@H]2[C@@H](O)C[C@@]2(C)[C@H]1CC[C@]2(O)C(=O)CO [Prednisolone, reference compound] |  |  |  |  |  |  |  |  | 35 | 51 | 53
CCCCCCCCOc1c(O)c2ccc(NC(=O)/C=C/c3cc(OC)c(O)c(OC)c3)cc2n(C)c1=O [compound 41, 7-(3,5-dimethoxy-4-hydroxycinnamoylamino)-3-octyloxy-4-hydroxy-1-methyl-2(1H)-quinolinone] | 26 | 31 | 43 | 53 | 39 | 54 | 84 | 50 |  |  | 
CCCCCCCCNc1ccc2c(O)c(OC)c(=O)n(C)c2c1 [compound 24, 7-octylamino-3-methoxy-4-hydroxy-1-methyl-2(1H)-quinolinone] |  |  |  | 46 |  |  |  | 44 |  |  | 
C=CCNc1ccc2c(O)c(OCCCCCCCC)c(=O)n(C)c2c1 [compound 46, 7-(2-propenylamino)-3-octyloxy-4-hydroxy-1-methyl-2(1H)-quinolinone] | 30 | 28 | 33 | 46 | 32 | 44 | 53 | 55 |  |  | 
CCCCCCNc1ccc2c(O)c(OC)c(=O)n(C)c2c1 [compound 27, 7-hexylamino-3-methoxy-4-hydroxy-1-methyl-2(1H)-quinolinone] |  |  |  | 45 |  |  |  | 46 |  |  | 
CCCCn1c(=O)c(O)c(OCC=C(C)C)c2ccc(NC)cc21 [compound 38, 7-methylamino-3-hydroxy-4-prenyloxy-1-butyl-2(1H)-quinolinone] |  |  |  | 40 |  |  |  | 37 |  |  | 
